Legend:
Assay type in all cases: cell-based
[1] = target: proteins of U3A human fibrosarcoma cells (4462 proteins detected) (Homo sapiens, UniProt Q9Y316); details: protein MEMO1, U3A cells
[2] = target: proteins of U3A human fibrosarcoma cells (4462 proteins detected) (Homo sapiens, UniProt Q15370); details: protein TCEB2, U3A cells
[3] = target: proteins of U3A human fibrosarcoma cells (4462 proteins detected) (Homo sapiens, UniProt P30086); details: protein PEBP1, U3A cells
[4] = target: proteins of U3A human fibrosarcoma cells (4462 proteins detected) (Homo sapiens, UniProt Q15043); details: protein SLC39A14; soluble abundance after heat, U3A cells
[5] = target: proteins of U3A human fibrosarcoma cells (4462 proteins detected) (Homo sapiens, UniProt Q9Y6G3); details: protein MRPL42; soluble abundance after heat, U3A cells
[6] = target: proteins of U3A human fibrosarcoma cells (4462 proteins detected) (Homo sapiens, UniProt Q75QN2); details: protein INTS8; U3A cells
[7] = target: proteins of U3A human fibrosarcoma cells (4462 proteins detected) (Homo sapiens, UniProt Q6KC79); details: protein NIPBL; U3A cells
[8] = target: proteins of U3A human fibrosarcoma cells (4462 proteins detected) (Homo sapiens, UniProt P04920); details: protein SLC4A2; U3A cells
[9] = target: proteins of U3A human fibrosarcoma cells (4462 proteins detected) (Homo sapiens, UniProt P14854); details: protein COX6B1, U3A cells
[10] = target: proteins of U3A human fibrosarcoma cells (4462 proteins detected) (Homo sapiens, UniProt O75347); details: protein TBCA, U3A cells
[11] = target: proteins of U3A human fibrosarcoma cells (4462 proteins detected) (Homo sapiens, UniProt Q96AC1); details: protein FERMT2; U3A cells
[12] = target: proteins of U3A human fibrosarcoma cells (4462 proteins detected) (Homo sapiens, UniProt O94915); details: protein FRYL; U3A, 10 μM, 2 h
[13] = target: proteins of U3A human fibrosarcoma cells (4462 proteins detected) (Homo sapiens, UniProt P50281); details: protein MMP14; U3A cells
[14] = target: proteins of U3A human fibrosarcoma cells (4462 proteins detected) (Homo sapiens, UniProt P15927); details: protein RPA2; U3A cells
[15] = target: proteins of U3A human fibrosarcoma cells (4462 proteins detected) (Homo sapiens, UniProt P05388); details: protein RPLP0; RPLP0P6; U3A cells
[16] = target: proteins of U3A human fibrosarcoma cells (4462 proteins detected) (Homo sapiens, UniProt Q9GZV4); details: protein EIF5A2; U3A, 10 μM, 2 h
[17] = target: proteins of U3A human fibrosarcoma cells (4462 proteins detected) (Homo sapiens, UniProt P23919); details: protein DTYMK; U3A cells
[18] = target: proteins of U3A human fibrosarcoma cells (4462 proteins detected) (Homo sapiens, UniProt Q01826); details: protein SATB1; U3A cells
[19] = target: proteins of U3A human fibrosarcoma cells (4462 proteins detected) (Homo sapiens, UniProt P20839); details: protein IMPDH1, U3A cells
[20] = target: proteins of U3A human fibrosarcoma cells (4462 proteins detected) (Homo sapiens, UniProt P16298); details: protein PPP3CB; U3A cells
[21] = target: proteins of U3A human fibrosarcoma cells (4462 proteins detected) (Homo sapiens, UniProt P09874); details: protein PARP1; U3A cells
[22] = target: proteins of U3A human fibrosarcoma cells (4462 proteins detected) (Homo sapiens, UniProt Q99848); details: protein EBNA1BP2; U3A cells
[23] = target: proteins of U3A human fibrosarcoma cells (4462 proteins detected) (Homo sapiens, UniProt Q13131); details: protein PRKAA1; U3A cells
[24] = target: proteins of U3A human fibrosarcoma cells (4462 proteins detected) (Homo sapiens, UniProt Q9BRA2); details: protein TXNDC17, U3A cells
[25] = target: proteins of U3A human fibrosarcoma cells (4462 proteins detected) (Homo sapiens, UniProt Q76FK4); details: protein NOL8; soluble abundance after heat, U3A cells
[26] = target: proteins of U3A human fibrosarcoma cells (4462 proteins detected) (Homo sapiens, UniProt Q8TDN6); details: protein BRIX1; U3A cells
[27] = target: proteins of U3A human fibrosarcoma cells (4462 proteins detected) (Homo sapiens, UniProt Q13601); details: protein KRR1; soluble abundance after heat, U3A cells
[28] = target: proteins of U3A human fibrosarcoma cells (4462 proteins detected) (Homo sapiens, UniProt O00487); details: protein PSMD14; U3A cells
[29] = target: proteins of U3A human fibrosarcoma cells (4462 proteins detected) (Homo sapiens, UniProt Q9BX40); details: protein LSM14B; U3A, 10 μM, 2 h
[30] = target: proteins of U3A human fibrosarcoma cells (4462 proteins detected) (Homo sapiens, UniProt P25787); details: protein PSMA2, U3A cells
Sequence of proteins of U3A human fibrosarcoma cells (4462 proteins detected) (Homo sapiens, UniProt P25787) (P25787 whole entry): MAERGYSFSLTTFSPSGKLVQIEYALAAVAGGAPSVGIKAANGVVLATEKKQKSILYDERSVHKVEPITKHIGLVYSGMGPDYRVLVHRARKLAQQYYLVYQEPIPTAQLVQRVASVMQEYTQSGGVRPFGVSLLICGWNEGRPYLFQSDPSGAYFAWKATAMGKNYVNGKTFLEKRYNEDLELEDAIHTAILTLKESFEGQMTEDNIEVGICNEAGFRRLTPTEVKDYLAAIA

Sequence of proteins of U3A human fibrosarcoma cells (4462 proteins detected) (Homo sapiens, UniProt Q9BX40) (Q9BX40 whole entry): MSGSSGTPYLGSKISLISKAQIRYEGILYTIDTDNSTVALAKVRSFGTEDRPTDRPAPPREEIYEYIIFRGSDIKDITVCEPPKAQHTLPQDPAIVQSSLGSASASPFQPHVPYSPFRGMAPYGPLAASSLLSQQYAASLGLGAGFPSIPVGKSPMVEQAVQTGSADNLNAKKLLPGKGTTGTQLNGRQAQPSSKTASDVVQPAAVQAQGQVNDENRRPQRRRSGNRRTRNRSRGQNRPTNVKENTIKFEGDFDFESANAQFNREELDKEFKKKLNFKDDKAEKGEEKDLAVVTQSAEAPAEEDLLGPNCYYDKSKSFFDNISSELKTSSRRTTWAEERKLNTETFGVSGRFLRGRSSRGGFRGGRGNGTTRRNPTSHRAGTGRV
Sequence of proteins of U3A human fibrosarcoma cells (4462 proteins detected) (Homo sapiens, UniProt Q13601) (Q13601 whole entry): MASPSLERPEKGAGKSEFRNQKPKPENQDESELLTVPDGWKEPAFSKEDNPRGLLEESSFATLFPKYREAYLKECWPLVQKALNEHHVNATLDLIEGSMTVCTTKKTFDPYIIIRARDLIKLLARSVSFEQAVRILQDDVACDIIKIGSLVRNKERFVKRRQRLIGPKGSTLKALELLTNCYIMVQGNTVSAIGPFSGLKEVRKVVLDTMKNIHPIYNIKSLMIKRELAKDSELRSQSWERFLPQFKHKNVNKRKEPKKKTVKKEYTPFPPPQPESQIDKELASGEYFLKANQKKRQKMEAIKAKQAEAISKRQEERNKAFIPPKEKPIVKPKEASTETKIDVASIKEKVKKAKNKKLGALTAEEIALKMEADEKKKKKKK
Sequence of proteins of U3A human fibrosarcoma cells (4462 proteins detected) (Homo sapiens, UniProt O75347) (O75347 whole entry): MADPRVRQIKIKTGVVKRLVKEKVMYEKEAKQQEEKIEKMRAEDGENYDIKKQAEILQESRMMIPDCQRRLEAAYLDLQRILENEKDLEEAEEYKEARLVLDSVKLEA
Sequence of proteins of U3A human fibrosarcoma cells (4462 proteins detected) (Homo sapiens, UniProt Q15043) (Q15043 31-492): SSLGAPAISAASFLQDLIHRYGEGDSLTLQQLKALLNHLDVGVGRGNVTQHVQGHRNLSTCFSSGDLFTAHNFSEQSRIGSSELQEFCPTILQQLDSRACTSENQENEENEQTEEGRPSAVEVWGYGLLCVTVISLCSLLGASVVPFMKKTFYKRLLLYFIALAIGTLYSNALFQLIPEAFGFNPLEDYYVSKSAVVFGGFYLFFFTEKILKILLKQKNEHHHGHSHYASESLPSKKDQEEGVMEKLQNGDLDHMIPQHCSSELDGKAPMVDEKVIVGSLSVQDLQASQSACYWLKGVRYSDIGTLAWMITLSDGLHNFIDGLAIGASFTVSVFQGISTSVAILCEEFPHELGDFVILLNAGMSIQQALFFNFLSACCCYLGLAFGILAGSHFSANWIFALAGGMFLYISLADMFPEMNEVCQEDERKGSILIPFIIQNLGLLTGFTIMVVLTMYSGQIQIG
Sequence of proteins of U3A human fibrosarcoma cells (4462 proteins detected) (Homo sapiens, UniProt Q9Y316) (Q9Y316 whole entry): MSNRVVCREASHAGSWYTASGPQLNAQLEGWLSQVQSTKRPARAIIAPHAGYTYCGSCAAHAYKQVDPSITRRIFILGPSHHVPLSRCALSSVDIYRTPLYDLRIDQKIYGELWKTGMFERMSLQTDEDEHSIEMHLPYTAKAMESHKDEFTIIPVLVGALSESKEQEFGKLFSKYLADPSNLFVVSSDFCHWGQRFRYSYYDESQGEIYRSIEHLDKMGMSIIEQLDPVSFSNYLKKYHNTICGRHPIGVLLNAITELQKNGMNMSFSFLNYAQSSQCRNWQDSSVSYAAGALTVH
Sequence of proteins of U3A human fibrosarcoma cells (4462 proteins detected) (Homo sapiens, UniProt Q9GZV4) (Q9GZV4 whole entry): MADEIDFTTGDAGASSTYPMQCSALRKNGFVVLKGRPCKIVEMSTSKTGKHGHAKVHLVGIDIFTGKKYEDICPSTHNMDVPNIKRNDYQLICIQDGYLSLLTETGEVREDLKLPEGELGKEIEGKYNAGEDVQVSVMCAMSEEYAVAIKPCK
Sequence of proteins of U3A human fibrosarcoma cells (4462 proteins detected) (Homo sapiens, UniProt O00487) (O00487 whole entry): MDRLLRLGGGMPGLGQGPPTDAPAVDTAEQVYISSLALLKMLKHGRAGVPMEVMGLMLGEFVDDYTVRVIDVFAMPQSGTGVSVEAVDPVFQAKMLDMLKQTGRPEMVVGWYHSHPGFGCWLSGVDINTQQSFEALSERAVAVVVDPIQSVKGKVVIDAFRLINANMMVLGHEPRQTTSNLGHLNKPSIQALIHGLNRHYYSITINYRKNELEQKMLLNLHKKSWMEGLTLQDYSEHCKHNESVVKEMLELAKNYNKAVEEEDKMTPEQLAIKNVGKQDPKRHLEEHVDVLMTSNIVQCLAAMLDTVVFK
Sequence of proteins of U3A human fibrosarcoma cells (4462 proteins detected) (Homo sapiens, UniProt P14854) (P14854 whole entry): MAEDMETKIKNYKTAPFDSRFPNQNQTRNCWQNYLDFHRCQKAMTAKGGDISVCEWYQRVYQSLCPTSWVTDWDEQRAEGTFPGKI
Sequence of proteins of U3A human fibrosarcoma cells (4462 proteins detected) (Homo sapiens, UniProt Q9BRA2) (Q9BRA2 whole entry): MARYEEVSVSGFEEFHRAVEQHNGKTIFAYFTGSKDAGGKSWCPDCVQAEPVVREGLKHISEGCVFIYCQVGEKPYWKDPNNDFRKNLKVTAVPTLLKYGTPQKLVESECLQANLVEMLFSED
Sequence of proteins of U3A human fibrosarcoma cells (4462 proteins detected) (Homo sapiens, UniProt Q8TDN6) (Q8TDN6 whole entry): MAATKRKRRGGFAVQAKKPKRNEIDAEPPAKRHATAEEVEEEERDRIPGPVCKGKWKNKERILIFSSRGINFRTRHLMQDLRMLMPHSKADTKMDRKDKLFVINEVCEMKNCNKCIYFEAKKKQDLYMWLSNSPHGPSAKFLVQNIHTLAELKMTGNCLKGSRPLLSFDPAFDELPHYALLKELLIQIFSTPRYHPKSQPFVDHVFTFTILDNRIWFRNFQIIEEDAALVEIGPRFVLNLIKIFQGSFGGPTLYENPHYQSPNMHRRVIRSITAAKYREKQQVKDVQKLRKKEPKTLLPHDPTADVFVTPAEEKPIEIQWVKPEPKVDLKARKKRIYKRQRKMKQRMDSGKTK
Sequence of proteins of U3A human fibrosarcoma cells (4462 proteins detected) (Homo sapiens, UniProt P15927) (P15927 whole entry): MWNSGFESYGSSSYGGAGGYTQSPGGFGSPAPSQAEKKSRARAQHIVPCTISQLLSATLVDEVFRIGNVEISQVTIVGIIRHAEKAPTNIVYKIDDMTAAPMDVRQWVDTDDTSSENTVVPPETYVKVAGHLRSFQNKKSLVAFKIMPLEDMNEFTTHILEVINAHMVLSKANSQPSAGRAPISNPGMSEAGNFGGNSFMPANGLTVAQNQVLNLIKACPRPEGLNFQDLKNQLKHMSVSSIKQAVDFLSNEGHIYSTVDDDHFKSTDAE
Sequence of proteins of U3A human fibrosarcoma cells (4462 proteins detected) (Homo sapiens, UniProt P09874) (P09874 whole entry): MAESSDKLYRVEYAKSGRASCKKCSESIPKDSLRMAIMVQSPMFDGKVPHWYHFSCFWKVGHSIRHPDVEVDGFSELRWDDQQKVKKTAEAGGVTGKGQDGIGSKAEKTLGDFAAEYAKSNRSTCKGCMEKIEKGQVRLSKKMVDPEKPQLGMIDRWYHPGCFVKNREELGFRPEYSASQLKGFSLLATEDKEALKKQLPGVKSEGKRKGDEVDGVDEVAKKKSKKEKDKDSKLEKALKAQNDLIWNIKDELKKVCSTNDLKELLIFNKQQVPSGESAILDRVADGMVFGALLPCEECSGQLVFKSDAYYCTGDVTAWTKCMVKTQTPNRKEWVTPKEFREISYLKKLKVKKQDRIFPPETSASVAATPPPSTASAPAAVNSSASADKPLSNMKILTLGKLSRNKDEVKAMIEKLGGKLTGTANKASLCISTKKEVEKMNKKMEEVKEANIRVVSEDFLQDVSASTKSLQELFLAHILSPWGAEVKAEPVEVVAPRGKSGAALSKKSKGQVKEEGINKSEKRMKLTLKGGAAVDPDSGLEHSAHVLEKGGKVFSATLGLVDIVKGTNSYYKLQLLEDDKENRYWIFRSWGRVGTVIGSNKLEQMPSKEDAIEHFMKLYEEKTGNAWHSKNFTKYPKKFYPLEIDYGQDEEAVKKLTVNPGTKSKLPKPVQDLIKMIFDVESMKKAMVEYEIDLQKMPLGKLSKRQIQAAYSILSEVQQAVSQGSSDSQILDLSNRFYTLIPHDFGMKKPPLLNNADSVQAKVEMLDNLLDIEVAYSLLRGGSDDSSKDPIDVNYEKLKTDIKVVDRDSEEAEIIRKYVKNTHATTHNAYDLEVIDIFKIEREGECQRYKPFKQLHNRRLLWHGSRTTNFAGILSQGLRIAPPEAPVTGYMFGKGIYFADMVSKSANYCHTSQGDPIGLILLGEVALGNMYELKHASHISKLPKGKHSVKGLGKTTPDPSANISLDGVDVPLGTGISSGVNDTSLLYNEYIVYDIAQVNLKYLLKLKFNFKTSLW
Sequence of proteins of U3A human fibrosarcoma cells (4462 proteins detected) (Homo sapiens, UniProt Q13131) (Q13131 whole entry): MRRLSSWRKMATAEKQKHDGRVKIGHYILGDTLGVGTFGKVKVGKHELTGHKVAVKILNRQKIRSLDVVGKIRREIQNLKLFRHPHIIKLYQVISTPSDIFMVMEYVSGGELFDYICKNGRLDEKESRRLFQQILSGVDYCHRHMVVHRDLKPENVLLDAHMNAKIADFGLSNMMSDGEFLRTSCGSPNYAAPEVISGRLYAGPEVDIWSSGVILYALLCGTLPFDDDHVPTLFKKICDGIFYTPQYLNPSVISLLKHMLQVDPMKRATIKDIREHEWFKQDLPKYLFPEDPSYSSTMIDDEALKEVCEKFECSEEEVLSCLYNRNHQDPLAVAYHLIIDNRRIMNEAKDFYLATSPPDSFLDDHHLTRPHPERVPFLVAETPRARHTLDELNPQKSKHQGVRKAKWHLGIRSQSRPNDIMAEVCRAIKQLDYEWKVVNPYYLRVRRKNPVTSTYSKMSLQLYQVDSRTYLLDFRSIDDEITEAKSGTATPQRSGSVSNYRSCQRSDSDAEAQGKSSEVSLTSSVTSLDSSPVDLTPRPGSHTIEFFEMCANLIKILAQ
Sequence of proteins of U3A human fibrosarcoma cells (4462 proteins detected) (Homo sapiens, UniProt Q15370) (Q15370 whole entry): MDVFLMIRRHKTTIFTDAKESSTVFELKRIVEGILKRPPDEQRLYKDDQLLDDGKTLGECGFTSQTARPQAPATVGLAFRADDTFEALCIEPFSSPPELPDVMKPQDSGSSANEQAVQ

`CCc1nc(N)nc(N)c1-c1ccc(Cl)cc1` [pyrimethamine] was tested, and the “Log2 (PYR/DMSO)” value [1] was -0.03, the “Log2 (PYR/DMSO)” value [2] was -0.04 and the “Log2 (PYR/DMSO)” value [3] was -0.04. The “Log2 (PYR/DMSO)” value [4] was 0.14, the “Log2 (PYR/DMSO)” value [5] was 0.14 and the “Log2 (PYR/DMSO)” value [6] was 0.18. The “Log2 (PYR/DMSO)” value [7] was 0.23, the “Log2 (PYR/DMSO)” value [8] was 0.16 and the “Log2 (PYR/DMSO)” value [9] was -0.04. For the same compound, the “Log2 (PYR/DMSO)” value [10] was -0.04, the “Log2 (PYR/DMSO)” value [11] was 0.16 and the “Log2 (PYR/DMSO), FRYL” value [12] was 0.28. For the same compound, the “Log2 (PYR/DMSO)” value [13] was 0.19, the “Log2 (PYR/DMSO)” value [14] was 0.17 and the “Log2 (PYR/DMSO)” value [15] was 0.23. The “Log2 (PYR/DMSO), EIF5A2” value [16] was -0.18, the “Log2 (PYR/DMSO)” value [17] was 0.20 and the “Log2 (PYR/DMSO)” value [18] was 0.21. For the same compound, the “Log2 (PYR/DMSO)” value [19] was -0.04, the “Log2 (PYR/DMSO)” value [20] was 0.19 and the “Log2 (PYR/DMSO)” value [21] was 0.19. The “Log2 (PYR/DMSO)” value [22] was 0.21, the “Log2 (PYR/DMSO)” value [23] was 0.19 and the “Log2 (PYR/DMSO)” value [24] was -0.05. The “Log2 (PYR/DMSO)” value [25] was 0.13, the “Log2 (PYR/DMSO)” value [26] was 0.20 and the “Log2 (PYR/DMSO)” value [27] was 0.14. The “Log2 (PYR/DMSO)” value [28] was 0.17, the “Log2 (PYR/DMSO), LSM14B” value [29] was -0.17 and the “Log2 (PYR/DMSO)” value [30] was -0.03.
